Results on six molecules are retold here after PMC7377239, “Cardiovascular Effects of Polychlorinated Biphenyls and Their Major Metabolites” (Environmental Health Perspectives, 2020).

SMILES strings stand for the structures. Where two headings read alike, the source gives them in different places.

For one data set, the system named is HUVECs. In words: High-content imaging cytotoxicity in HUVECs, 24 h. Type of data set: cell-based, human. The settings on record: Homo sapiens, HUVEC, 24 h, HUVEC, 24 hr. The method, boiled down:
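Read-out: multiwavelength high-content imaging of Hoechst 33342, MitoTracker Orange and calcein AM after 24 h compound exposure of confluent HUVEC monolayers. POD values were set using a one-SD cutoff from vehicle (0.5% DMSO) means; with no concentration–response, 100μM was assigned as no observable adverse effect level.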

Data set [1] relates to iCell endothelial cells (human iPSC-derived ECs). In words: High-content imaging cytotoxicity in iCell endothelial cells, 24 h. The class given is cell-based. Conditions: for minimal effective concentration: Homo sapiens, Endothelial cell, endothelial cells (endo), 24 hr; for effect on cell viability in iPSC-ECs: 0.01-100 μM. The method, boiled down:
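Readouts were vehicle-normalised and fitted to a four-parameter logistic model. POD was set at one SD beyond 0.5% DMSO control means, and 100 µM was assigned when no response was seen. Cells were monolayers of iCell endothelial cells imaged after 24 h compound exposure using nuclear, mitochondrial and calcein dyes.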

Setting [2] is: cyto, read-out: POD huvec.cyto.24hr.
Where [3] appears, read: mito, read-out: POD huvec.mito.24hr.
[4] abbreviates: mitoint, read-out: POD huvec.mitoint.24hr.
[5] abbreviates: nma, read-out: POD huvec.nma.24hr.
Setting [6] is: tc, read-out: POD huvec.tc.24hr.
Setting [7] is: cyto, read-out: POD endo.cyto.24hr.
The mark [8] stands for this setting: mito, read-out: POD endo.mito.24hr.
The mark [9] stands for this setting: mitoint, read-out: POD endo.mitoint.24hr.
[10] abbreviates: nma, read-out: POD endo.nma.24hr.

Regarding `Clc1ccc(-c2ccccc2)cc1` [PCB 3, 4-chlorobiphenyl], the minimal effective concentration (with HUVECs (setting [2]); with HUVECs (setting [3]); in the data set with HUVECs (setting [4]); in the data set with HUVECs (setting [5]); with HUVECs (setting [6]); in data set [1] (setting [7])) was 100 µM each time. Moreover, the minimal effective concentration was 100 µM in data set [1] (setting [8]); 100 µM in data set [1] (setting [9]); 100 µM in data set [1] (setting [10]); 100 µM in data set [1] (tc, read-out: POD endo.tc.24hr). Further, in data set [1], the “effect on cell viability in iPSC-ECs” value is recorded as “did not affect cell viability”.
For `Clc1cccc(-c2cccc(Cl)c2)c1` [PCB 11, 3,3′-Dichlorobiphenyl], the minimal effective concentration was 11.2 µM in the data set with HUVECs (setting [2]); 9.68 µM in the data set on HUVECs (setting [3]); 7.62 µM in the data set with HUVECs (setting [4]); 9.3 µM in the data set with HUVECs (setting [5]); 11.2 µM in the data set with HUVECs (setting [6]); 100 µM in data set [1] (setting [7]). For the same molecule, the minimal effective concentration in data set [1] (setting [8]) was determined as 100 µM; in data set [1] (setting [9]), 100 µM; in data set [1] (setting [10]), 100 µM; in data set [1] (tc, read-out: POD endo.tc.24hr) it was 100 µM. Also, in data set [1], the “effect on cell viability in iPSC-ECs” value is reported as “did not affect cell viability”.
As to `Clc1ccc(Cl)c(-c2cc(Cl)ccc2Cl)c1` [PCB 52, 2,2′,5,5′-tetrachlorobiphenyl], the minimal effective concentration with HUVECs (setting [2]) amounted to 0.67 µM; in the data set with HUVECs (setting [3]), 0.57 µM; with HUVECs (setting [4]), 6.01 µM; in the data set with HUVECs (setting [5]) it was 4.97 µM; with HUVECs (setting [6]), 0.67 µM; in data set [1] (setting [7]), 100 µM. In addition, the minimal effective concentration in data set [1] (setting [8]) is 100 µM; in data set [1] (setting [9]), 100 µM; in data set [1] (setting [10]), 100 µM; in data set [1] (tc, read-out: POD endo.tc.24hr), 100 µM.
In the case of `Clc1ccc(Cl)c(-c2c(Cl)ccc(Cl)c2Cl)c1` [PCB 95, 2,2′,3,5′,6-pentachlorobiphenyl], the minimal effective concentration in the data set with HUVECs (setting [2]) was determined as 0.01 µM; in the data set on HUVECs (setting [3]), 0.022 µM; with HUVECs (setting [4]), 7.41 µM; in the data set with HUVECs (setting [5]), 1.93 µM; in the data set on HUVECs (setting [6]), 0.01 µM; in data set [1] (setting [7]) it was 100 µM. Moreover, the minimal effective concentration in data set [1] (setting [8]) turned out to be 100 µM; in data set [1] (setting [9]), 100 µM; in data set [1] (setting [10]), 100 µM; in data set [1] (tc, read-out: POD endo.tc.24hr) it was 100 µM.
For `Clc1ccc(-c2cc(Cl)c(Cl)c(Cl)c2)cc1Cl` [PCB 126, 3,3′,4,4′,5-pentachlorobiphenyl], the minimal effective concentration in the data set on HUVECs (setting [2]) stood at 5.33 µM; with HUVECs (setting [3]) it was 100 µM; in the data set on HUVECs (setting [4]), 100 µM; with HUVECs (setting [5]), 100 µM; in the data set on HUVECs (setting [6]) it was 5.33 µM; in data set [1] (setting [7]), 0.33 µM. Besides, the minimal effective concentration in data set [1] (setting [8]) turned out to be 0.33 µM; in data set [1] (setting [9]) it was 10.2 µM; in data set [1] (setting [10]), 100 µM; in data set [1] (tc, read-out: POD endo.tc.24hr), 0.34 µM.
On to `Clc1cc(Cl)c(-c2cc(Cl)c(Cl)cc2Cl)cc1Cl` [PCB 153, 2,2′,4,4′,5,5′-hexachlorobiphenyl], for which the minimal effective concentration with HUVECs (setting [2]) turned out to be 0.0171 µM; in the data set with HUVECs (setting [3]), 0.75 µM; in the data set on HUVECs (setting [4]) it was 0.83 µM; in the data set on HUVECs (setting [5]), 1.01 µM; in the data set on HUVECs (setting [6]), 0.0171 µM; in data set [1] (setting [7]) it was 18.6 µM. Moreover, the minimal effective concentration in data set [1] (setting [8]) was determined as 18.6 µM; in data set [1] (setting [9]) it was 0.07 µM; in data set [1] (setting [10]) it was 62.5 µM; in data set [1] (tc, read-out: POD endo.tc.24hr), 49.2 µM.
